The target in one test is T1, mHTT (Homo sapiens, UniProt P42858).
T1 construct: host or cells: ST HDH Q111/111 mouse striatal cell line (knock-in locus)
T1 sequence (P42858 with tags, fused parts or gaps with the stated changes): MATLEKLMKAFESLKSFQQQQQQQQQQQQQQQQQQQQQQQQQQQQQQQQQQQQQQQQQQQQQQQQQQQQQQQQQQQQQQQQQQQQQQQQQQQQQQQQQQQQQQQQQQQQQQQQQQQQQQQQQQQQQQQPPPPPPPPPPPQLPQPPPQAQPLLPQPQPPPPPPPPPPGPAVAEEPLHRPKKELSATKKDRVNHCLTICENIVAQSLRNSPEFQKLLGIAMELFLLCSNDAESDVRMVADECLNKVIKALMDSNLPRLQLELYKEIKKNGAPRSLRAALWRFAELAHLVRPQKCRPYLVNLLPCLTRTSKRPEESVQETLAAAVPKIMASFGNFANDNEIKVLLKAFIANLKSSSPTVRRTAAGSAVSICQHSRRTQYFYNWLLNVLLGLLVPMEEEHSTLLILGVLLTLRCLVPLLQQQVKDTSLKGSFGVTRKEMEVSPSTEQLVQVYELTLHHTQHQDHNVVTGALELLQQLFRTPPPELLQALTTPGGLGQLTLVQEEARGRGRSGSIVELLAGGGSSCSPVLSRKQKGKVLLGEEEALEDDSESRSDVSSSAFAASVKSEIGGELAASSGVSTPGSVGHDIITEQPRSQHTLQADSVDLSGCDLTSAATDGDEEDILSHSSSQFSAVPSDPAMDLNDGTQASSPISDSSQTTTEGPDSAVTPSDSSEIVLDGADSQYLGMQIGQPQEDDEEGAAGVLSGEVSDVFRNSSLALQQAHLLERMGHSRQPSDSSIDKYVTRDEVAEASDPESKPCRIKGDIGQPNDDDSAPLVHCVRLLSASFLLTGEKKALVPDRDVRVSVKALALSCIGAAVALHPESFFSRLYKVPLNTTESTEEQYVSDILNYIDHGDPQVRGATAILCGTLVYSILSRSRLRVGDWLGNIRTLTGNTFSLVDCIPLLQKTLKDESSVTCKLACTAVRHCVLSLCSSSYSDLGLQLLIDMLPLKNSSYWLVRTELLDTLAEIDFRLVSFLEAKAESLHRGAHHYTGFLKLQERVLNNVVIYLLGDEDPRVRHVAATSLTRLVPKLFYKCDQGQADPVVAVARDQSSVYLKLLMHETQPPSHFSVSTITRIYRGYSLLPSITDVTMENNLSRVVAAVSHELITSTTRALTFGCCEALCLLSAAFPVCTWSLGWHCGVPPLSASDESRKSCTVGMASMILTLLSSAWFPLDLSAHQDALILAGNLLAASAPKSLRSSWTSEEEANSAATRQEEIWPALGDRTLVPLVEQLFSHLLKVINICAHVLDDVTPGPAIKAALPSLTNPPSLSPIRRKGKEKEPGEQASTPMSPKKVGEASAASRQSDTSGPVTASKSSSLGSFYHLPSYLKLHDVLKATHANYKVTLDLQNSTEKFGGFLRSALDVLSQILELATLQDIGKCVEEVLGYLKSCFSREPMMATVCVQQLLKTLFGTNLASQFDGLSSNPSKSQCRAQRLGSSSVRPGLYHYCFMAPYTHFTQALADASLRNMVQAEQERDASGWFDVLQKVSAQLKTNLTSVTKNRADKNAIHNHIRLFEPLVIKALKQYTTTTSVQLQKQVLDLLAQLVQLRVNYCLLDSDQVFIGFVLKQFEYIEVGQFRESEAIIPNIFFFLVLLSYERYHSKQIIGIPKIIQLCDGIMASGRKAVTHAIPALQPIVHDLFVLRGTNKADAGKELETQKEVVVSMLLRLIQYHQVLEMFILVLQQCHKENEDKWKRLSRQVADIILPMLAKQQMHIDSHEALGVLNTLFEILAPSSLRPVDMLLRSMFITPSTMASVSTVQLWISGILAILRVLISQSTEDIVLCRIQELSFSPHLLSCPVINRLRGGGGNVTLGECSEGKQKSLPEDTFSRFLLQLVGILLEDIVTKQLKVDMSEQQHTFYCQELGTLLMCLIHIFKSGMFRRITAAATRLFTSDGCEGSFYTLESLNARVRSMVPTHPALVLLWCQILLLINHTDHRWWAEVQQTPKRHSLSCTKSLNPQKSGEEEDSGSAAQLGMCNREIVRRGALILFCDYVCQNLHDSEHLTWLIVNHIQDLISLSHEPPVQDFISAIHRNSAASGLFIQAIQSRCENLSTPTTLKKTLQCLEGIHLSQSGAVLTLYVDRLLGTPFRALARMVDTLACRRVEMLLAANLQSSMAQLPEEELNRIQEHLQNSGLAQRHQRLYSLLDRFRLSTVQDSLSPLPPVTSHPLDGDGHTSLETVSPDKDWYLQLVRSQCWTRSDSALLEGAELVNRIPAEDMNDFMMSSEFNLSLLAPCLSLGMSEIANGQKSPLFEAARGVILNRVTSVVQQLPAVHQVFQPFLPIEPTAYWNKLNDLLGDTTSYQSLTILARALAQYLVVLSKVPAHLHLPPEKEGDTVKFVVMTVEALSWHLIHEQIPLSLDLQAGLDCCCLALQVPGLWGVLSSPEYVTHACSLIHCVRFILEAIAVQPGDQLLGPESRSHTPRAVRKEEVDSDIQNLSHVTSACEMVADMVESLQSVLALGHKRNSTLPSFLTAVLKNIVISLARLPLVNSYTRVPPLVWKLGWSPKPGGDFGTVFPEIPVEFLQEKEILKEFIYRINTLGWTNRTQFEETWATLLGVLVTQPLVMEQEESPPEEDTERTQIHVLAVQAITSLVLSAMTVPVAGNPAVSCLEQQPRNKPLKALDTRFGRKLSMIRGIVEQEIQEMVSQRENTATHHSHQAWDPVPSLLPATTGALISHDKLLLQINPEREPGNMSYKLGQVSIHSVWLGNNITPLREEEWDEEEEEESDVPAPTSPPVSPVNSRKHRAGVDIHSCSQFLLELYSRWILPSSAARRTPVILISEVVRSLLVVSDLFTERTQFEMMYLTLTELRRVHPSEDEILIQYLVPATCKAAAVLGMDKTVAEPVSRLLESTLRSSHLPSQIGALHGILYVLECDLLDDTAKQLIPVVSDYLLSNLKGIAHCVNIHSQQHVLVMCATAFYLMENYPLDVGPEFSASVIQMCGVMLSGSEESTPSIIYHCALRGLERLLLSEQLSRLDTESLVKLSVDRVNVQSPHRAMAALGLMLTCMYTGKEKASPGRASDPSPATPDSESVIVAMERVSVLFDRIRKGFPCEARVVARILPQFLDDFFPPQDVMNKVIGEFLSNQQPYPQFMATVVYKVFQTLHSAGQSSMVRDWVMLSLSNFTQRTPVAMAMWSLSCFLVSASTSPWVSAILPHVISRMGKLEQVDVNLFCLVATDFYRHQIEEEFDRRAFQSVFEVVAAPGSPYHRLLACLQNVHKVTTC
Put plainly: mHTT levels in striatal cells (immunocytochemistry). It is filed as cell-based, mouse. To be noted: STHdh 111/111; 10 µM; 3 hours heat shock, 48 hours treatment; percentage in comparison to untreated STHdh 111/111; 3B5H10 antibody. On the procedure: (§1) Staining - Cells were permeabilized with 0.3% Triton X-100 in 4 °C PBS (pH 7.4 from ThermoFisher) for 10 minutes. Then the cells were washed two times with 4 °C PBS. Subsequently, cells are blocked with 3% NGS (normal goat serum from Thermo Fisher) in 4 ° C PBS for 1 hour. Cells were incubated with primary antibodies in blocking buffer (PBS, 3% NGS, 0.02% NaN3) over night at 4 °C. Primary antibodies were mouse antipolyglutamine monoclonal antibody 3B5H10 (Sigma-Aldrich) at 1:250 dilution and Guinea Pig anti-MAP2 polyclonal antibody (Synaptic Systems) at 1:500 dilution. 3B5H10 binds to diffuse mHTT. Diffuse mHTT is a monomeric and small oligomeric mHTT. Diffuse mHTT is correlated to pathological parameters in Huntington's disease. Compounds that bind the mHTT will reduce the levels of diffuse mHTT detected.
Cells were washed 2 times with 4 °C PBS, and then incubated with secondary antibodies at 1:2000 dilution in blocking buffer for 1hour at room temperature. […] Cells were washed 2 times with 4 °C PBS, and then the nuclei were counterstain with DAPI (ThermoFisher) for 10 min at room temperature in the dark. Cells were washed 2 times with 4 °C PBS, and then 4 °C PBS was added to cells and then images were acquired. […] Table 11: Antibodies Used in Immunocytochemistry Studies
Fluorescence Imaging - Imaging sessions were performed on a confocal microscope system (Carl Zeiss Microscopy) equipped with a dual spinning disk unit (Yokogawa). All components of the imaging system were controlled via the ZEN 2 software suite (Carl Zeiss Microscopy). The laser lines used were 405 nm, 488 nm and 639 nm to excite DAPI or the respective fluorophores. […] Nested t test was performed to calculate the significance amongst repeated measurements using GraphPad Prism software.
as §1, with “For LC3 staining primary antibodies were mouse anti-LC3 mab (5F10) (nanoTools) at 1:500 dilution” for “3B5H10 binds to diffuse mHTT. Diffuse mHTT is a monomeric”, “Guinea Pig anti-MAP2 polyclonal antibody (Synaptic Systems) at 1:500 dilution.” for “small oligomeric mHTT. Diffuse mHTT is correlated to pathological parameters in Huntington's disease. Compounds that bind the mHTT will reduce the levels of diffuse mHTT detected.”
Cells were washed 2 times with 4 °C PBS, and then incubated with secondary antibodies at 1:2000 dilution in blocking buffer for 1hour at room temperature. […] Cells were washed 2 times with 4 °C PBS, and then the nuclei were counterstain with DAPI (ThermoFisher) for 10 min at room temperature in the dark. Cells were washed 2 times with 4 °C PBS, and then 4 °C PBS was added to cells and then images were acquired.
EC 50 value was determined with non-linear regression.
`CCN(CC)CCNC(=O)c1ccc2c(c1)c(C)c(C)n2C` [Compound 19, N-(2-(Diethylamino)ethyl)-1,2,3-dimethyl-1H-indole-5-carboxamide] gave a mHTT after treatment of 45%.

Still in this test, the particulars now being: STHdh 111/111; 10 µM; 3 hours heat shock, 48 hours treatment; percentage in comparison to untreated STHdh 111/111; 3B5H10 antibody; read-out: mHTT after treatment.
In the case of `CCc1c(C)[nH]c2ccc(C(=O)NCCN(C)C)cc12` [Compound 1], the remaining activity at 10 µM stood at 30%. Same read-out and setting: next, `Cc1[nH]c2ccc(C(=O)NCCN3CCOCC3)cc2c1C` [Compound 2, 2,3-dimethyl-N-(2-morpholinoethyl)-1H-indole-5-carboxamide]: 32%; `CN(C)CCNC(=O)c1ccc2[nH]c3c(c2c1)CCCC3` [Compound 3]: 33%; `CN(C)CCNC(=O)c1ccc2[nH]c3c(c2c1)CCC3` [Compound 5]: 36%. Still for that read-out and setting: in the case of `O=C(NCCN1CCOCC1)c1ccc2[nH]c3c(c2c1)CCC3` [Compound 8] it was 38%. On the same count and under the same terms, in the case of `CN1CCN(CCNC(=O)c2ccc3[nH]c4c(c3c2)CCC4)CC1` [Compound 10] it was 40%.

For `CCc1[nH]c2ccc(C(=O)NCCN3CCCC3)cc2c1C` [Compound 11], the remaining activity at 10 µM turned out to be 40%. The same measure, in the same setting: next, `O=C(NCCN1CCOCC1)c1ccc2[nH]c3c(c2c1)CCCC3` [Compound 12]: 40%; `O=C(NCCN1CCCC1)c1ccc2[nH]c3c(c2c1)CCCC3` [Compound 13]: 41%.

For the compound `CCc1c(C)[nH]c2ccc(C(=O)NCCN3CCN(C)CC3)cc12` [Compound 15], the remaining activity at 10 µM turned out to be 42%. `O=C(NCCN1CCCCC1)c1ccc2[nH]c3c(c2c1)CCCC3` [Compound 16]: the remaining activity at 10 µM came to 43%.

For the compound `Cc1[nH]c2ccc(C(=O)NCCN3CCC3)cc2c1C` [Compound 17, N-(2-(Azetidin-1-yl)ethyl)-2,3-dimethyl-1H-indole-5-carboxamide], the remaining activity at 10 µM turned out to be 44%. In the case of `O=C(NCCN1CCC1)c1ccc2[nH]c3c(c2c1)CCCC3` [Compound 20], the remaining activity at 10 µM stood at 45%. Still for that read-out and setting: next, `CCN(CC)CCNC(=O)c1ccc2[nH]c(C)c(C)c2c1` [Compound 21, N-(2-(Diethylamino)ethyl)-2,3-dimethyl-1H-indole-5-carboxamide]: 46%. Still for that read-out and setting: next, `CCc1[nH]c2ccc(C(=O)NCCN3CCCCC3)cc2c1C` [Compound 23]: 47%; `Cc1c(C)n(C)c2ccc(C(=O)NCCN3CCN(C)C(C)C3)cc12` (stereo not drawn) [Compound 25, N-(2-(3,4-Dimethylpiperazin-1-yl)ethyl)-1,2,3-trimethyl-1H-indole-5-carboxamide]: 48%. The same measure, in the same setting: next, `CCN(CC)CCNC(=O)c1ccc2[nH]c3c(c2c1)CCC3` [Compound 27]: 50%; `Cc1[nH]c2ccc(C(=O)NCCN3CCCC3)cc2c1C` [Compound 29, 2,3-Dimethyl-N-(2-(pyrrolidin-1-yl)ethyl)-1H-indole-5-carboxamide]: 51%; `CCc1[nH]c2ccc(C(=O)NCCN3CCOCC3)cc2c1C` [Compound 30]: 51%. For the compound `Cc1c(C)n(C)c2ccc(C(=O)NCCN3CCCCC3)cc12` [Compound 31, 1,2,3-Trimethyl-N-(2-(piperidin-1-yl)ethyl)-1H-indole-5-carboxamide], the remaining activity at 10 µM was determined as 52%. Still for that read-out and setting: next, `CCc1c(C)[nH]c2ccc(C(=O)NCCN3CCOCC3)cc12` [Compound 32]: 53%; `CCc1c(C)[nH]c2ccc(C(=O)NCCN3CCC3)cc12` [Compound 33]: 55%. Still for that read-out and setting: next, `CN1CCN(CCNC(=O)c2ccc3[nH]c4c(c3c2)CCCC4)CC1` [Compound 36]: 56%; `CCc1[nH]c2ccc(C(=O)NCCN(C)C)cc2c1C` [Compound 37]: 56%; `CCc1[nH]c2ccc(C(=O)NCCN(CC)CC)cc2c1C` [Compound 38]: 57%.

Still in this test, the particulars now being: STHdh 111/111 striatal cells.
For `O=C(NCCN1CCC1)c1ccc2[nH]c3c(c2c1)CCCC3` [Compound 20], the “mHTT reduction with MG132 in comparison to without MG132” value is listed as “less”.

For the origin of these results see patent publication EP4140481A1, “PROTEIN-OLIGOMER BINDING AGENTS AND THERAPEUTIC USES THEREOF” (Galyan Bio, Inc., priority 2021, dated 2023).
